Consider eleven compounds from ChEMBL document CHEMBL1201862, “PubChem BioAssay data set” (2004).

Among the test systems are SK-OV-3; Malme-3M; HL-60; IGROV-1; ACHN; OVCAR-3; 786-0; HCC 2998; A498; UACC-62; UO-31; DU-145; RPMI-8226; SN12C; RXF 393; MDA-MB-231; CAKI-1; SF-539; U-251; SF-295.
Holding throughout (assay): inhibition of tumour cell growth, NCI panel, 48 h

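Growth conditions: 96-well plates. Treatment: test compound, 48 hours, 5 concentrations. Analysis: linear interpolation between bracketing concentrations; unreached endpoints set to highest concentration. GI50 is the concentration that inhibits growth by half.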 The source made the active and inactive calls. Cut-off read from the data, not from the text of the source: active = GI50 up to about 1.1 µM and inactive = higher. Where a SMILES comes first, the peptide text is derived from it. [ ]: non-standard residue; d: D form. The star is where a group is joined. ξ: configuration not given here. ξNMe2Val = CC(C)C(C(=O)*)N(C)C; NMeV = CN[CH](C(=O)O)C(C)C; NHBn = c1ccc(CN*)cc1 Bounds are passed on as bounds.

For `CCCCC/N=C/c1c(O)c(O)c(C(C)C)c2cc(C)c(-c3c(C)cc4c(C(C)C)c(O)c(O)c(/C=N/CCCCC)c4c3O)c(O)c12`, the GI50 in the assay with SK-OV-3 is 7.06 µM (inactive); in the assay on Malme-3M, 12.7 µM (inactive); in the assay on HL-60, 3.94 µM (inactive); in the assay on IGROV-1, 9.98 µM (inactive); in the assay on ACHN, 3.59 µM (inactive); with OVCAR-3, 5.28 µM (inactive). In addition, the GI50 in the assay on 786-0 was 11.8 µM (inactive); in the assay on HCC 2998 it was 10.7 µM (inactive); in the assay on A498, 27.3 µM (inactive); in the assay with UACC-62, 7.03 µM (inactive); in the assay on UO-31, 7.13 µM (inactive); in the assay on DU-145, 19.5 µM (inactive). The GI50 was 8.26 µM (inactive) with RPMI-8226; 7.94 µM (inactive) in the assay with SN12C; 11.2 µM (inactive) with RXF 393; 7.43 µM (inactive) with MDA-MB-231; 18 µM (inactive) in the assay on CAKI-1; 6.08 µM (inactive) in the assay on SF-539. In addition, in the assay on U-251, the GI50 was 3.06 µM (inactive).
Take `CC(C)C1OC(/C=C/c2ccccc2)OCC1(C)C` (centres undefined): the GI50 in the assay on SF-295 is 31 µM (inactive); in the assay with SK-OV-3 it was 48.3 µM (inactive); in the assay with Malme-3M, 0.91 µM (active); with HL-60, 19.9 µM (inactive); in the assay on IGROV-1, 40.1 µM (inactive); in the assay with ACHN it was 32.2 µM (inactive). Besides, the GI50 with OVCAR-3 is 20.4 µM (inactive); in the assay with 786-0 it was 37.1 µM (inactive); with HCC 2998, 19.6 µM (inactive); with A498 it was 24 µM (inactive); in the assay with UACC-62, 45.7 µM (inactive); in the assay on UO-31, 34.8 µM (inactive). The GI50 is 37.2 µM (inactive) in the assay on DU-145; 17.8 µM (inactive) in the assay on RPMI-8226; 21.6 µM (inactive) in the assay with SN12C; 18.1 µM (inactive) in the assay with RXF 393; 36.4 µM (inactive) in the assay on MDA-MB-231; 31.8 µM (inactive) with CAKI-1. Moreover, the GI50 in the assay on U-251 was 24.9 µM (inactive).
Turning to `COC(=O)[C@@H]1CN(C(=O)CCc2ccccc2)C(=O)N1`, the GI50 in the assay with SF-295, with SK-OV-3, in the assay with Malme-3M, in the assay on HL-60, with IGROV-1 and with ACHN was > 100 µM (inactive) each time. Further, the GI50 is > 100 µM (inactive) with OVCAR-3; > 100 µM (inactive) in the assay on 786-0; > 100 µM (inactive) with HCC 2998; > 100 µM (inactive) with A498; 50.2 µM (inactive) in the assay with UO-31; > 100 µM (inactive) in the assay on DU-145. For the same compound, the GI50 in the assay on RPMI-8226, in the assay with SN12C, in the assay on RXF 393, with MDA-MB-231, with CAKI-1 and with SF-539 was > 100 µM (inactive) in each case. Besides, in the assay on U-251, the GI50 is > 100 µM (inactive).
As for `COc1ccc(/N=C(C)/C(C)=N/c2ccc(OC)cc2)cc1`, the GI50 in the assay with SF-295 was 17 µM (inactive); in the assay on SK-OV-3, > 100 µM (inactive); in the assay on Malme-3M, > 100 µM (inactive); in the assay with HL-60, 52.2 µM (inactive); with IGROV-1, > 100 µM (inactive); with ACHN, 3.36 µM (inactive). Moreover, the GI50 is > 100 µM (inactive) in the assay with OVCAR-3; > 100 µM (inactive) with 786-0; 20.2 µM (inactive) in the assay on HCC 2998; > 100 µM (inactive) with A498; 6.97 µM (inactive) in the assay on UO-31; 30.9 µM (inactive) with DU-145. Further, the GI50 was 25.1 µM (inactive) with RPMI-8226; > 100 µM (inactive) in the assay on SN12C; > 100 µM (inactive) in the assay with RXF 393; > 100 µM (inactive) in the assay on MDA-MB-231; 35.5 µM (inactive) in the assay on CAKI-1; 30.8 µM (inactive) in the assay with SF-539. Further, the GI50 in the assay on U-251 was > 100 µM (inactive).
Regarding `O=C1c2ccccc2NC(=O)C2C1C(c1ccccc1)CC2(O)c1ccccc1` (centres undefined), the GI50 in the assay with SF-295 was 43.6 µM (inactive); with SK-OV-3, > 100 µM (inactive); in the assay with Malme-3M, > 100 µM (inactive); in the assay on HL-60, 53.1 µM (inactive); in the assay on IGROV-1 it was 52.4 µM (inactive); in the assay on ACHN, 37 µM (inactive). Moreover, the GI50 in the assay with OVCAR-3 was 31.6 µM (inactive); with 786-0, 69.5 µM (inactive); with HCC 2998 it was 67 µM (inactive); in the assay on A498, > 100 µM (inactive); with UACC-62, > 100 µM (inactive); in the assay on DU-145, > 100 µM (inactive). Moreover, the GI50 in the assay with SN12C was > 100 µM (inactive); with RXF 393, 80.9 µM (inactive); with MDA-MB-231 it was 34.4 µM (inactive); in the assay with CAKI-1, 78 µM (inactive); with SF-539, > 100 µM (inactive).
Turning to `N#Cc1ccc(Oc2nc3ccccc3nc2C(=O)O)cc1`, the GI50 with SF-295, with SK-OV-3, with Malme-3M, in the assay with HL-60, with IGROV-1 and with ACHN was > 100 µM (inactive) each time. Also, the GI50 in the assay on OVCAR-3, in the assay on 786-0, with HCC 2998, in the assay with A498, with UACC-62 and in the assay with UO-31 was > 100 µM (inactive) in each case. In addition, the GI50 with DU-145, in the assay on RPMI-8226, in the assay on RXF 393, in the assay on MDA-MB-231, in the assay with CAKI-1 and with U-251 was > 100 µM (inactive) each time.
As for `Clc1ncnc2c1nc(C#Cc1ccccc1)n2C1CCCCO1` (centres undefined), the GI50 is 4.47 µM (inactive) in the assay with SF-295; 7.67 µM (inactive) in the assay with SK-OV-3; 1.95 µM (inactive) with Malme-3M; 2.59 µM (inactive) with HL-60; 1.69 µM (inactive) in the assay with ACHN; 1.37 µM (inactive) with OVCAR-3. The GI50 in the assay with 786-0 is 1.42 µM (inactive); with HCC 2998 it was 2.1 µM (inactive); in the assay on A498, 2.63 µM (inactive); in the assay with UACC-62, 2.42 µM (inactive); in the assay with UO-31 it was 1.93 µM (inactive); in the assay on DU-145 it was 1.47 µM (inactive). Further, the GI50 in the assay with SN12C is 1.78 µM (inactive); in the assay on RXF 393, 1.51 µM (inactive); in the assay on MDA-MB-231, 3.95 µM (inactive); with CAKI-1, 1.97 µM (inactive); in the assay with SF-539 it was 1.91 µM (inactive); with U-251 it was 2.08 µM (inactive).
As for `COC(=O)c1ccccc1C1CN=NC12Cc1c(C)ccc(C)c1C2=O` (centres undefined), the GI50 with SF-295 was > 100 µM (inactive); with SK-OV-3, > 100 µM (inactive); in the assay on Malme-3M, 36.6 µM (inactive); in the assay on HL-60, 37.6 µM (inactive); with IGROV-1, > 100 µM (inactive); with ACHN it was > 100 µM (inactive). Further, the GI50 in the assay on OVCAR-3, with 786-0, with HCC 2998, in the assay on A498, in the assay on UACC-62 and in the assay on UO-31 was > 100 µM (inactive) in each case. The GI50 in the assay with DU-145, in the assay on SN12C, in the assay on RXF 393, in the assay on MDA-MB-231, with CAKI-1 and in the assay with SF-539 was > 100 µM (inactive) in each case. For the same compound, the GI50 with U-251 was > 100 µM (inactive).
In the case of `Cn1c2ccccc2c(=O)c2c(O)cc3c(c21)C=CC1(CCCC1)O3`, the GI50 is 19 µM (inactive) in the assay with SF-295; > 100 µM (inactive) in the assay on SK-OV-3; > 100 µM (inactive) in the assay on Malme-3M; > 100 µM (inactive) with HL-60; 61.7 µM (inactive) in the assay on IGROV-1; > 100 µM (inactive) with ACHN. Moreover, the GI50 is > 100 µM (inactive) with OVCAR-3; 76.4 µM (inactive) in the assay with 786-0; > 100 µM (inactive) in the assay on HCC 2998; > 100 µM (inactive) with A498; > 100 µM (inactive) in the assay on UACC-62; > 100 µM (inactive) in the assay with DU-145. For the same compound, the GI50 is > 100 µM (inactive) in the assay on RPMI-8226; > 100 µM (inactive) in the assay with SN12C; 22.7 µM (inactive) with RXF 393; > 100 µM (inactive) in the assay on MDA-MB-231; > 100 µM (inactive) in the assay on CAKI-1; 50.5 µM (inactive) with SF-539. Further, the GI50 in the assay on U-251 was > 100 µM (inactive).
On to `COC(=O)c1ccccc1C1CN=NC12Cc1c(ccc(C)c1C)C2=O` (centres undefined), for which the GI50 with SF-295 is > 100 µM (inactive); in the assay on SK-OV-3, 72.8 µM (inactive); in the assay with Malme-3M, > 100 µM (inactive); in the assay on HL-60, > 100 µM (inactive); with IGROV-1 it was > 100 µM (inactive); in the assay on ACHN, > 100 µM (inactive). For the same compound, the GI50 is 45.7 µM (inactive) in the assay on OVCAR-3; 38.4 µM (inactive) with 786-0; > 100 µM (inactive) with HCC 2998; > 100 µM (inactive) in the assay with A498; > 100 µM (inactive) in the assay with UACC-62; > 100 µM (inactive) with UO-31. The GI50 in the assay on DU-145 was > 100 µM (inactive); with SN12C it was > 100 µM (inactive); in the assay on RXF 393, > 100 µM (inactive); in the assay on MDA-MB-231, 81.5 µM (inactive); in the assay with CAKI-1, > 100 µM (inactive); with U-251, 48.3 µM (inactive).
On to `CC(C)C(NC(=O)C(C(C)C)N(C)C)C(=O)N(C)C(C(=O)N1CCCC1C(=O)N1CCCC1C(=O)NCc1ccccc1)C(C)C` (centres undefined) (ξNMe2Val-V[NMeV]PP-NHBn; configuration not given here), for which the GI50 was < 0.0001 µM (active) in the assay on SF-295; 0.000221 µM (active) in the assay with SK-OV-3; < 0.01 µM (active) with Malme-3M; < 0.0001 µM (active) with HL-60; < 0.0001 µM (active) with IGROV-1; < 0.0001 µM (active) in the assay on ACHN. For the same compound, the GI50 with 786-0 is < 0.0001 µM (active); in the assay with HCC 2998 it was < 0.0001 µM (active); in the assay with A498, < 0.01 µM (active); with UACC-62 it was < 0.0001 µM (active); with UO-31 it was 0.0015 µM (active); in the assay on DU-145 it was < 0.0001 µM (active). The GI50 in the assay with RPMI-8226 was < 0.0001 µM (active); with SN12C it was < 0.0001 µM (active); in the assay with RXF 393, 0.0175 µM (active); in the assay on MDA-MB-231 it was < 0.0001 µM (active); in the assay on CAKI-1 it was < 0.0001 µM (active); with SF-539, < 0.01 µM (active). Besides, the GI50 in the assay on U-251 is < 0.0001 µM (active).
